Patent US20240334934A1, “FUNGICIDE MIXTURE” (priority 2021, published 2024)
Like-named read-outs stand apart in the source and are kept apart here.

What was measured:
[1] = system: a variety of fungal strains; conditions: statement of WO2015191789, cited from earlier work
[2] = system: Tilletia tritici K5212; test: Efficacy of purified CtmC alone in-vitro, 96 well plate, OD 620 nm; assay type: cell-based; conditions: CtmC 10 ppm
[3] = system: Zymoseptoria tritici; test: Efficacy of purified CtmC in-vitro, microtiter plate growth inhibition; assay type: cell-based; conditions: rate 10 ppm; 72 hrs at 24° C.
Procedure: (§1) CtmC was dissolved in DMSO (Dimethylsulfoxid) to a final concentration of 1000 ppm to create a stock solution. A second dilutions of 1:10 was made in water+0.025% Tween 20. From this second dilution 10 μl are dispensed into a 96-well plate. To each well, 90 μl of medium with fungal spores are added and mixed, resulting in final CtmC concentrations of 10 ppm. All wells containing CtmC also contain DMSO (1%) and Tween 20 (0.0025%).
(§2) Zymoseptoria tritici (Septoria leaf blotch): Conidia of the fungus from cryogenic storage were directly mixed into nutrient broth (PDB potato dextrose broth). After placing a solution of the test compounds into a microtiter plate (96-well format) the nutrient broth containing the fungal spores was added.

[4] = system: Monographella nivalis; test: as above; assay type: cell-based; conditions: rate 10 ppm; 72 hrs at 24° C.
Procedure: as §1
as §2, with “Monographella nivalis (snow mould, foot rot of cereals):” for “Zymoseptoria tritici (Septoria leaf blotch):”

[5] = system: Zymoseptoria tritici; test: Greenhouse test, wheat, preventative; assay type: in vivo; conditions: 1 day preventative, EC50 formulation
Procedure: (§3) Purified Cyclothiazomycin C (CtmC) was formulated as an EC50 formulation. The formulation was diluted in water at rates of 100 ppm and 50 ppm of CtmC. Plants were treated with 400 L/ha of the diluted product supplemented with an adjuvant to improve sticking and spreading, resulting in a treatment of 40 g/ha and 20 g/ha of CtmC, respectively.
Zymoseptoria tritici wheat/preventative (Septoria tritici leaf spot on wheat). 2-week old wheat plants cv. Riband are sprayed in a spray chamber with the formulated test compound diluted in water. The test plants are inoculated by spraying a spore suspension on them one day after application. After an incubation period of 1 day at 22° C./21° C. (day/night) and 95% rh, the inoculated test plants are kept at 22° C./21° C. (day/night) and 70% rh in a greenhouse. Efficacy is assessed directly when an appropriate level of disease appears on untreated check plants (16-19 days after application).

[6] = system: Puccinia triticina; test: Leaf disc assay, wheat leaf segments, preventive; assay type: in vivo; conditions: rate 20 ppm, 8 dpi
Procedure: (§4) A CtmC stock was generated at 1000 ppm in DMSO, then Diluted 1:50 in water+Tween 20 at 0.025% resulting in a 20 ppm solution.
(§5) Puccinia triticina (also known as recondite, Brown rust, wheat): Wheat leaf segments are placed on agar in multiwell plates (24-well format) and sprayed with test solutions. After drying, the leaf disks are inoculated with a spore suspension of the fungus. After appropriate incubation the activity of a compound is assessed 8 dpi (days after inoculation) as preventive fungicidal activity.

[7] = system: Botrytis cinerea; test: Greenhouse test, tomato, preventative; assay type: in vivo; conditions: 2 days preventative, EC50 formulation
Procedure: as §3
Botrytis cinerea tomato/preventative (Botrytis on tomato) 4-week old tomato plants cv. Roter Gnom are treated in a spray chamber with the formulated test compound diluted in water. The test plants are inoculated by spraying them with a spore suspension two days after application. The inoculated test plants are incubated at 20° C. and 95% rh in a greenhouse and the percentage leaf area covered by disease is assessed when an appropriate level of disease appears on untreated check plants (5-6 days after application).

[8] = system: genus Bacillus; conditions: statement of WO2015191789, Table 6; cited from earlier work
[9] = system: Phakopsora pachyrhizi; test: Leaf disc assay, soybean leaf disks, preventive; assay type: in vivo; conditions: rate 20 ppm, approx. 12 dpi
Procedure: as §4
as §5, with “Phakopsora pachyrhizi (Asian Soybean rust): Soybean” for “Puccinia triticina (also known as recondite, Brown rust, wheat): Wheat”, “disks” for “segments”, “approx. 12” for “8”, “activity” for “activity.”

[10] = system: Gibberella zeae K6934; assay type: cell-based; conditions: CtmC 10 ppm
[11] = system: Puccinia triticina; test: Greenhouse test, wheat, preventative; assay type: in vivo; conditions: 2 days preventative, EC50 formulation
Procedure: as §3
Puccinia triticina (also known as recondata, Brown rust on wheat). 2-week old wheat plants cv. Arina are sprayed in a spray chamber with the formulated test compound diluted in water. […] After an incubation period of 1 day at 20° C. and 95% rh, the inoculated test plants are kept at 20° C./18° C. (day/night) and 60% rh in a greenhouse. The percentage leaf area covered by disease is assessed when an appropriate level of disease appears on untreated check plants (12-14 days after application).

Structure (SMILES): C=C1NC(=O)CNC(=O)[C@H](CCCCN)NC(=O)[C@@]2(C)NC(=O)/C(=C/C)NC(=O)[C@H]3CSC(=N3)[C@@H](CC(N)=O)CC(=O)c3ccc(nc3[C@@H](C)NC(=O)[C@@H]3CCCN3C1=O)-c1nc(cs1)C1=N[C@H](CS1)C(=O)NC(=C)c1nc(cs1)-c1nc(cs1)C1=N[C@@H](CS1)C(=O)N[C@@H](C(=O)O)CS2 [CtmC, cyclothiazomycin C]
- growth inhibitory action toward a variety of fungal strains ([1]; listed as Cyclothiazomycin C): no fungal inhibitory action
- growth inhibitory action toward a variety of fungal strains ([1]; listed as cyclothiazomycin C): none was observed
- efficacy (%) [2]: 96%
- optical density at 620 nm ([2]; blank 0.046, untreated 0.451): 0.062
- control of fungal growth (%) [3]: 90%
- control of fungal growth (%) [4]: 100%
- efficacy 20 g/ha (%) ([5]; 20 g/ha): 44%
- efficacy 40 g/ha (%) ([5]; 40 g/ha): 16%
- control of fungal growth (%) [6]: 90%
- efficacy 20 g/ha (%) ([7]; 20 g/ha): 30%
- efficacy 40 g/ha (%) ([7]; 40 g/ha): 47%
- inhibitory activity [8]: greatest inhibitory activity
- control of fungal growth (%) [9]: 50%
- efficacy (%) [10]: 48%
- optical density at 620 nm ([10]; blank 0.052, untreated 0.641): 0.361
- efficacy 20 g/ha (%) ([11]; 20 g/ha): 81%
- efficacy 40 g/ha (%) ([11]; 40 g/ha): 81%
